Experimental findings from patent US20250101041A1, “POSITIVE ALLOSTERIC MODULATORS OF THE MUSCARINIC ACETYLCHOLINE RECEPTOR M4” (Vanderbilt University, priority 2022, published 2025) are described below.

This assay concerns the target T1, human mAChR M4 (Homo sapiens, UniProt P08173).
T1 construct: expressed in transfected cells; host or cells: CHO-K1 (American Type Culture Collection), stably expressing hM4 and Gqi5
T1 sequence (P08173 1-479): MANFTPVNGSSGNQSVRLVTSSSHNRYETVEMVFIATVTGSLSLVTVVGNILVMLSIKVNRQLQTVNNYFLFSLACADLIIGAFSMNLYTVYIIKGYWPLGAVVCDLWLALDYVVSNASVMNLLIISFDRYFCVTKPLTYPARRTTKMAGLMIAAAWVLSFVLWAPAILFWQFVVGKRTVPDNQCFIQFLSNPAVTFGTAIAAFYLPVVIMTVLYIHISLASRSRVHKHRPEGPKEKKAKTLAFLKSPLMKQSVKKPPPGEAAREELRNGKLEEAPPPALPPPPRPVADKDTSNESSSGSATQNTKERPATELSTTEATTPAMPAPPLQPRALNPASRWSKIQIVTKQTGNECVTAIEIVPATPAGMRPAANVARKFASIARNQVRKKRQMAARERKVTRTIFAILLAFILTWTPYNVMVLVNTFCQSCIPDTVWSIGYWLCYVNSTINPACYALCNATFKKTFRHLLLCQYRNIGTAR
Kind of assay: mAChR M4 cell-based functional assay: calcium mobilization (Fluo-4, FDSS), potentiation of EC20 acetylcholine response in hM4-Gqi5 CHO-K1 cells. As to conditions: for Emax at 30 µM: CHO-K1, % ACh maximum at 30 μM; for EC50: potentiation of EC20 acetylcholine response, calcium mobilization. On the set-up: Emax: dose or concentration left out as unconfirmed. In outline:
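CHO-K1 cells stably co-expressing human M4 and chimeric Gqi5, loaded with Fluo-4 AM (50 min, 37 °C). Compounds in 11-point 1:3 series added first; EC20 acetylcholine added at 144 s and again at 230 s. Calcium read on FDSS at 1 Hz; EC50 and Emax from four-parameter logistic fit of potentiated EC20 response.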
In general terms: A change in cytosolic calcium serves as a functional read-out for many receptors and channels.

As for `Cc1c(N2CCc3ncc(-c4cncc(Cl)c4)cc3C2)nn2c(=O)cc(C(F)F)nc2c1C` [Compound 1-160, 7-(3-(5-chloropyridin-3-yl)-7,8-dihydro-1,6-naphthyridin-6(5H)-yl)-2-(difluoromethyl)-8,9-dimethyl-4H-pyrimido[1,2-b]pyridazin-4-one], for the setting “human M4”, the Emax at 30 µM was found to be 82% and the EC50 stood at 547 nM.
On to `COCc1cc(=O)n2nc(N3CCc4ncc(-c5ccc(C)nc5)cc4C3)c(C)cc2n1` [Compound 1-314, 2-(methoxymethyl)-8-methyl-7-(3-(6-methylpyridin-3-yl)-7,8-dihydro-1,6-naphthyridin-6(5H)-yl)-4H-pyrimido[1,2-b]pyridazin-4-one], for which, under “human M4”, the Emax at 30 µM is 96% and the EC50 was 109 nM.
Take `COCc1cc(=O)n2nc(N3Cc4cc(C(F)(F)F)cnc4C(C)C3)c(C)c(C)c2n1` (single isomer, unassigned) [Compound 1-377]: under “% ACh maximum at 30 μM, human M4”, the “Emax (%)*” value turned out to be 112%. Besides, the EC50 (human M4) worked out at 365 nM.
`Cc1cncc(-c2cnc3c(c2)CN(c2nn4c(=O)cc(C)nc4c(C)c2C)CC3)c1` [Compound 1-127, 2,8,9-trimethyl-7-(3-(5-methylpyridin-3-yl)-7,8-dihydro-1,6-naphthyridin-6(5H)-yl)-4H-pyrimido[1,2-b]pyridazin-4-one]: under “human M4”, the Emax at 30 µM came to 86% and the EC50 worked out at 1240 nM.
`Cc1c(N2CCc3ncc(-c4ccc(Cl)nc4Cl)cc3C2)nn2c(=O)cc(C(F)F)nc2c1C` [Compound 1-174, 7-(3-(2,6-dichloropyridin-3-yl)-7,8-dihydro-1,6-naphthyridin-6(5H)-yl)-2-(difluoromethyl)-8,9-dimethyl-4H-pyrimido[1,2-b]pyridazin-4-one]: for the setting “human M4”, the Emax at 30 µM was found to be 82% and the EC50 worked out at 450 nM.
For `Cc1cc(=O)n2nc(N3CCc4ncc(-c5cnn(CCN6CCOCC6)c5)cc4C3)c(C)c(C)c2n1` [Compound 1-178, 2,8,9-trimethyl-7-(3-(1-(2-morpholinoethyl)-1H-pyrazol-4-yl)-7,8-dihydro-1,6-naphthyridin-6(5H)-yl)-4H-pyrimido[1,2-b]pyridazin-4-one] the same measures were 74% and 2510 nM.
For `Cc1cc2nccn2cc1-c1cnc2c(c1)CN(c1nn3c(=O)cc(C(F)F)nc3c(C)c1C)CC2` [Compound 1-162, 2-(difluoromethyl)-8,9-dimethyl-7-(3-(7-methylimidazo[1,2-a]pyridin-6-yl)-7,8-dihydro-1,6-naphthyridin-6(5H)-yl)-4H-pyrimido[1,2-b]pyridazin-4-one], where the note is “human M4”, the Emax at 30 µM worked out at 71% and the EC50 came to 520 nM.
For `Cc1cc2nccc(=O)n2nc1N1CCc2ncc(-c3ccn(C)c(=O)c3)cc2C1` [Compound 1-37, 8-methyl-7-(3-(1-methyl-2-oxo-1,2-dihydropyridin-4-yl)-7,8-dihydro-1,6-naphthyridin-6(5H)-yl)-4H-pyrimido[1,2-b]pyridazin-4-one] the same measures were 83% and 2530 nM.
As for `COCc1cc(=O)n2nc(N3CCc4ncc(-c5ccc(F)nc5)cc4C3)c(C)cc2n1` [Compound 1-322, 7-(3-(6-fluoropyridin-3-yl)-7,8-dihydro-1,6-naphthyridin-6(5H)-yl)-2-(methoxymethyl)-8-methyl-4H-pyrimido[1,2-b] pyridazin-4-one], where the note is “human M4”, the Emax at 30 µM was 82% and the EC50 was 374 nM.
For `Cc1cc2nccc(=O)n2nc1N1CCc2ncc(N3CCOc4cc(F)ccc43)cc2C1` [Compound 2-56, 7-(3-(7-fluoro-2,3-dihydro-4H-benzo[b][1,4]oxazin-4-yl)-7,8-dihydro-1,6-naphthyridin-6(5H)-yl)-8-methyl-4H-pyrimido[1,2-b]pyridazin-4-one] the same measures were 98% and 14 nM.
Taken in the same sequence, the figures for `CCn1cc(-c2cnc3c(c2)CN(c2nn4c(=O)cc(C)nc4cc2C)CC3)cn1` [Compound 1-219, 7-(3-(1-ethyl-1H-pyrazol-4-yl)-7,8-dihydro-1,6-naphthyridin-6(5H)-yl)-2,8-dimethyl-4H-pyrimido[1,2-b]pyridazin-4-one] were 80% and 341 nM.
On to `Cc1nc(-c2cnc3c(c2)CN(c2nn4c(=O)ccnc4cc2C)CC3)cs1` [Compound 1-389, 8-methyl-7-(3-(2-methylthiazol-4-yl)-7,8-dihydro-1,6-naphthyridin-6(5H)-yl)-4H-pyrimido[1,2-b] pyridazin-4-one], for which, where the note is “human M4”, the Emax at 30 µM stood at 63% and the EC50 is 271 nM.
On to `Cc1cc2nccc(=O)n2nc1N1CCc2ncc(N3CCOc4ncccc43)cc2C1` [Compound 2-7, 7-(3-(2,3-dihydro-1H-pyrido[2,3-b][1,4]oxazin-1-yl)-7,8-dihydro-1,6-naphthyridin-6(5H)-yl)-8-methyl-4H-pyrimido[1,2-b]pyridazin-4-one], for which, for the setting “human M4”, the Emax at 30 µM is 84% and the EC50 came to 24 nM.
Taken in the same sequence, the figures for `Cc1cc2nccc(=O)n2nc1N1CCc2ncc(-c3cccc(Cl)c3C)cc2C1` [Compound 1-441, 7-(3-(3-chloro-2-methylphenyl)-7,8-dihydro-1,6-naphthyridin-6(5H)-yl)-8-methyl-4H-pyrimido[1,2-b]pyridazin-4-one] were 78% and 606 nM.
For `Cc1c(N2CCc3ncc(-c4ccc(F)c(F)c4)cc3C2)nn2c(=O)cc(C(F)F)nc2c1C` [Compound 1-283, 2-(difluoromethyl)-7-(3-(3,4-difluorophenyl)-7,8-dihydro-1,6-naphthyridin-6(5H)-yl)-8,9-dimethyl-4H-pyrimido[1,2-b]pyridazin-4-one] the same measures were 79% and 900 nM.
In the case of `Cc1cc(=O)n2nc(N3CCc4ncc(-c5ccnnc5)cc4C3)c(C)c(C)c2n1` [Compound 1-132, 2,8,9-trimethyl-7-(3-(pyridazin-4-yl)-7,8-dihydro-1,6-naphthyridin-6(5H)-yl)-4H-pyrimido[1,2-b]pyridazin-4-one], where the note is “human M4”, the Emax at 30 µM is 92% and the EC50 stood at 798 nM.
As for `C=Cc1cnc2cc(C)c(N3CCc4ncc(C(F)(F)F)cc4C3)nn2c1=O` [Compound 1-22, 8-Methyl-7-(3-(trifluoromethyl)-7,8-dihydro-1,6-naphthyridin-6(5H)-yl)-3-vinyl-4H-pyrimido[1,2-b]pyridazin-4-one], for the setting “CHO-K1”, the Emax turned out to be 73%. Moreover, the EC50 (human M4) is 246 nM.
As to `Cc1ccc(-c2cnc3c(c2)CN(c2nn4c(=O)c(Br)cnc4c(C)c2C)CC3)cn1` [Compound 1-88, 3-bromo-8,9-dimethyl-7-(3-(6-methylpyridin-3-yl)-7,8-dihydro-1,6-naphthyridin-6(5H)-yl)-4H-pyrimido[1,2-b]pyridazin-4-one], under “human M4”, the Emax at 30 µM amounted to 83% and the EC50 came out at 97 nM.
Regarding `Cc1c(N2CCc3ncc(N4CCO[C@H](C)C4)cc3C2)nn2c(=O)ccnc2c1C` [Compound 2-32, (R)-8,9-dimethyl-7-(3-(2-methylmorpholino)-7,8-dihydro-1,6-naphthyridin-6(5H)-yl)-4H-pyrimido[1,2-b]pyridazin-4-one], under “human M4”, the Emax at 30 µM was found to be 94% and the EC50 came to 84 nM.
For `Cc1cc2nc(C(F)F)cc(=O)n2nc1N1CCc2ncc(N3CCO[C@H](C)C3)cc2C1` [Compound 2-25, (R)-2-(difluoromethyl)-8-methyl-7-(3-(2-methylmorpholino)-7,8-dihydro-1,6-naphthyridin-6(5H)-yl)-4H-pyrimido[1,2-b]pyridazin-4-one] the same measures were 90% and 209 nM.
Consider `Cc1c(N2CCc3ncc(OCCN4CCOC4=O)cc3C2)nn2c(=O)ccnc2c1C` [Compound 3-4, 3-(2-((6-(8,9-Dimethyl-4-oxo-4H-pyrimido[1,2-b]pyridazin-7-yl)-5,6,7,8-tetrahydro-1,6-naphthyridin-3-yl)oxy)ethyl)oxazolidin-2-one], for which, where the note is “human M4”, the Emax at 30 µM was determined as 54% and the EC50 stood at 1060 nM.
On to `Cc1cc2nccc(=O)n2nc1N1CCc2ncc(N3CC(C)Oc4cc(F)ccc43)cc2C1` (stereo not drawn) [Compound 2-55, 7-(3-(7-fluoro-2-methyl-2,3-dihydro-4H-benzo[b][1,4]oxazin-4-yl)-7,8-dihydro-1,6-naphthyridin-6(5H)-yl)-8-methyl-4H-pyrimido[1,2-b]pyridazin-4-one], for which, where the note is “human M4”, the Emax at 30 µM came out at 89% and the EC50 is 108 nM.
As for `Cc1cc(=O)n2nc(N3CCc4ncc(-c5cnccn5)cc4C3)c(C)c(C)c2n1` [Compound 1-125, 2,8,9-trimethyl-7-(3-(pyrazin-2-yl)-7,8-dihydro-1,6-naphthyridin-6(5H)-yl)-4H-pyrimido[1,2-b]pyridazin-4-one], where the note is “human M4”, the Emax at 30 µM amounted to 97% and the EC50 amounted to 368 nM.
For `COCc1cc(=O)n2nc(N3CCc4ncc(-c5ccnc(C)c5)cc4C3)c(C)cc2n1` [Compound 1-361, 2-(methoxymethyl)-8-methyl-7-(3-(2-methylpyridin-4-yl)-7,8-dihydro-1,6-naphthyridin-6(5H)-yl)-4H-pyrimido[1,2-b] pyridazin-4-one] the same measures were 82% and 351 nM.

For orientation: Emax means the greatest response seen or fitted, relative to the assay's reference. Broadly, the EC50 is the concentration giving half of the maximal effect.
